# Experimental data reported in patent US20180008592A1, “TREATMENT OF UREMIC PRURITUS” (TREVI THERAPEUTICS, INC., priority 2016, published 2018).
# Assays:
# Format in all cases: in vivo, human
# [1] = test system: renally impaired patients on hemodialysis with moderate or severe uremic pruritus; test: Same trial: Skindex-10 (itch-related quality of life); conditions: for Skindex-10 Disease Domain (bothersomeness of itching) [0-18], change from Baseline to the Evaluation Period, mean (SD) / Skindex-10 Mood/emotional distress domain (0-24), change from Baseline to the Evaluation Period, mean (SD) / Skindex-10 Social Functioning Domain [0-18], change from Baseline to the Evaluation Period, mean (SD) / Skindex-10 Total Score [0 (best) to 60 (worst)], change from Baseline to the Evaluation Period, mean (SD): 60 mg BID; for Skindex-10 Mood/emotional distress domain (0-24), change from Baseline to the Evaluation Period, mean / Skindex-10 Social Functioning Domain [0-18], change from Baseline to the Evaluation Period, mean / Skindex-10 Total Score [0 (best) to 60 (worst)], change from Baseline to the Evaluation Period, mean / Skindex-10 Disease Domain (bothersomeness of itching) [0-18], change from Baseline to the Evaluation Period, mean: 120 mg BID
# From the text: FIG. 8 provides a numerical scale (range, 0-6; anchors at 0 “never bothered” and 6 “always bothered”) (top) used for answering 10 questions used in the assessment of itching-related quality of life (bottom) (Skindex-10).
# (§1) The primary endpoint was the change from Baseline to the Evaluation Period (Study weeks 7 and 8) in the modified intent-to-treat population. Quality of life-related secondary endpoints included change from Day 1 to the Evaluation Period in itching-related quality of life (using the Skindex-10 (FIG. 8)) and itching-related sleep disruption (using the Itch Medical Outcomes Study [Itch MOS] (FIG. 9), SLP-9). The Hospital Anxiety and Depression Score (HADS) used as a general measure of anxiety and depression. All patient-reported outcomes measures were selected based on their prior validation in uremic pruritus patients specifically or in the dialysis population more generally.
# (§2) The primary and quality of life secondary endpoint analyses used a mixed model repeated measures ANCOVA with the main effects of treatment and site and baseline worst itch NRS score as the covariate. The model included time (i.e. Visit) as a factor variable and treatment*time (with placebo as the reference category) with an unstructured covariance structure for repeated measures. Data from all post-baseline visits were used to fit the model. For the primary endpoint, the baseline value was defined as the mean of worst itch daytime and nighttime NRS scores used for satisfying the protocol inclusion criterion #5 (mean worst itching NRS≧4.5 based on a total of 3 daytime and 3 nighttime measurements from 3 dialysis visits). For the secondary endpoints, the baseline value was based on a measurement taken on Study Day 1, prior to randomization. A pre-specified step-down procedure was used. The first comparison was of nalbuphine 120 mg BID dose vs. placebo. If the first comparison was significant at the p<0.05 level, then the comparison between the nalbuphine 60 mg BID dose vs. placebo would be conducted. Patients with a 15% or greater response in worst itch NRS were analyzed using a Cochran-Mantel-Haenszel (CMH) test. Analysis of the Itch MOS utilized the SLP-9 scoring algorithm.
# (§3) In the first 2 weeks of treatment, patients were blindly force-titrated to their assigned target dose, with the patients in the active arms reaching a dose of 60 mg BID (NAL 60) after the first week and, for those in the high dose group, to 120 mg BID (NAL 120) after the second week. Study drug was administered in blister cards containing the labeled morning and evening doses for each day of the week. Subsequently, patients continued stable doses of the study drug for an additional 6 weeks and were then washed off study drug and followed for another 2 weeks for itching intensity and safety. No down-titration was permitted during the study, although patients who missed 6 or more consecutive doses during the Stable Dose Period (Weeks 3-8) could, with the Medical Monitor's approval, re-start treatment with blinded re-titration of just the morning or evening dose for 3 days before returning to the original dose. Patients were allowed to remain on their background antipruritic medications such as antihistamines and the use of these medications and indication for treatment was collected.
# [2] = test system: renally impaired patients on hemodialysis with moderate or severe uremic pruritus; test: Same trial: safety and tolerability (adverse events, discontinuation)
# From the text: The term “adverse event” (AE) as used herein is defined as any untoward medical occurrence in a clinical investigation patient reported on or after the first screening date. […] An AE can therefore be any unfavorable and unintended sign (including an abnormal laboratory finding), symptom whether or not related to the medicinal (investigational) product, or disease temporally associated with the use of a medicinal (investigational) product. Typical adverse events include nausea, vomiting, somnolence, dizziness and hallucination. In accordance with the present invention, the rate of adverse events after the treatment is substantially the same as the rate of adverse events after administering a placebo for the same period of time.
# This clinical study was a parallel, double-blind, placebo-controlled trial in which renally impaired patients on hemodialysis with moderate or severe uremic pruritus were randomized in a 1:1:1 ratio to nalbuphine ER tablets to a target dose of 120 mg BID or 60 mg BID, or matching placebo tablets BID. Medications taken for treatment of pruritus (“antipruritic medications”) were not prohibited, but their use was recorded throughout the study. Use of skin emollients was also not restricted. A placebo comparator was chosen because there are no approved treatments for uremic pruritus in the United States or Europe or an established standard of care that could serve as an active control.
# The primary objectives were to evaluate the effects on itching intensity using a Worst Itching Intensity Numerical Rating Scale (NRS, 0 [no itching]-10 [worst possible itching]) (FIG. 7) as well as safety and tolerability. The study was conducted at 46 United States investigative sites and 6 investigative sites in Romania and Poland. The Sponsor oversaw the conduct of the trial and an independent unblinded Data Safety Monitoring Board reviewed safety data approximately once a month during the conduct of the trial.
# as §3
# [3] = test system: renally impaired patients on hemodialysis with moderate or severe uremic pruritus; test: Same trial: Itch MOS (itch-related sleep disruption); conditions: for patients with sleep latency (time to fall asleep) >30 minutes, Itch MOS: last treatment week (Week 8)
# From the text: FIG. 9 provides 12 questions and a numerical scale (range, 1-6; anchors at 1 “All of the time”; 2 “Most of the time”; 3 “A good bit of the time”; 4 “Some of the time”; 5 “A little of the time”; and 6 “None of the time”) used in assessing itching-related sleep disruption (Itch Medical Outcomes Study (MOS) Questions).
# as §1, §2, §3
# [4] = severe subgroup (Baseline NRS ≧ 7), N = 61
# [5] = severe subgroup (Baseline NRS ≧ 7), N = 63
smiles,measurement,setting,value
"Cl.Oc1ccc2c3c1O[C@H]1[C@@H](O)CC[C@@]4(O)[C@@H](C2)N(CC2CCC2)CC[C@]314 [Nalbuphine, 17-(cyclobutylmethyl)-4,5α-epoxymorphinian-3,6α, 14-triol, hydrochloride]","Skindex-10 Disease Domain (bothersomeness of itching) [0-18], change from Baseline to the Evaluation Period, mean (SD)",[1]; N = 128,−5.3 (4.9)
same,"Skindex-10 Mood/emotional distress domain (0-24), change from Baseline to the Evaluation Period, mean (SD)",[1]; N = 128,−4.4 (5.0)
same,"Skindex-10 Social Functioning Domain [0-18], change from Baseline to the Evaluation Period, mean (SD)",[1]; N = 128,−4.2 (6.7)
same,"Skindex-10 Total Score [0 (best) to 60 (worst)], change from Baseline to the Evaluation Period, mean (SD)",[1]; N = 128,−13.8 (14.6)
same,"Skindex-10 Mood/emotional distress domain (0-24), change from Baseline to the Evaluation Period, mean",[1]; N = 120,−5.2
same,"Skindex-10 Social Functioning Domain [0-18], change from Baseline to the Evaluation Period, mean",[1]; N = 120,−5.4
same,"Skindex-10 Total Score [0 (best) to 60 (worst)], change from Baseline to the Evaluation Period, mean",[1]; N = 120,−17.0
same,"Skindex-10 Disease Domain (bothersomeness of itching) [0-18], change from Baseline to the Evaluation Period, mean","[1]; N = 120, p < 0.1",−6.4
same,"Skindex-10 Disease Domain (bothersomeness of itching) [0-18], change from Baseline to the Evaluation Period, mean (SD)",[1]; [4],−6.2 (5.1)
same,"Skindex-10 Mood/emotional distress domain (0-24), change from Baseline to the Evaluation Period, mean (SD)",[1]; [4],−5.1 (5.0)
same,"Skindex-10 Social Functioning Domain [0-18], change from Baseline to the Evaluation Period, mean (SD)",[1]; [4],−5.1 (7.04)
same,"Skindex-10 Total Score [0 (best) to 60 (worst)], change from Baseline to the Evaluation Period, mean (SD)",[1]; [4],−16.4 (15.1)
same,"Skindex-10 Social Functioning Domain [0-18], change from Baseline to the Evaluation Period, mean",[1]; [5],−7.1
same,"Skindex-10 Total Score [0 (best) to 60 (worst)], change from Baseline to the Evaluation Period, mean",[1]; [5],−20.5
same,"Skindex-10 Disease Domain (bothersomeness of itching) [0-18], change from Baseline to the Evaluation Period, mean","[1]; severe subgroup (Baseline NRS ≧ 7), N = 63, p < 0.05",−7.1
same,"Skindex-10 Mood/emotional distress domain (0-24), change from Baseline to the Evaluation Period, mean","[1]; severe subgroup (Baseline NRS ≧ 7), N = 63, p < 0.1",−6.4
same,Adverse Events Leading to Discontinuation: Dizziness,[2]; 60 mg BID,0.8%
same,Adverse Events Leading to Discontinuation: Hallucination,[2]; 60 mg BID,1.6%
same,Adverse Events Leading to Discontinuation: Nausea,[2]; 60 mg BID,9.5%
same,Adverse Events Leading to Discontinuation: Somnolence,[2]; 60 mg BID,4.0%
same,Adverse Events Leading to Discontinuation: Vomiting,[2]; 60 mg BID,9.5%
same,"Adverse Events Leading to Discontinuation, number of patients","[2]; 60 mg BID, N = 128",33
same,"Adverse Events Leading to Discontinuation, percent of patients","[2]; 60 mg BID, N = 128",26.2%
same,Serious Adverse Events (incidence),"[2]; 60 mg BID, N = 128, hydrochloride",12.7%
same,Serious Adverse Events (incidence),"[2]; 60 mg BID, N = 128, listed as NAL 60, hydrochloride",12.7%
same,Adverse Events Leading to Discontinuation: Dizziness,[2]; 120 mg BID,2.5%
same,Adverse Events Leading to Discontinuation: Hallucination,[2]; 120 mg BID,2.5%
same,Adverse Events Leading to Discontinuation: Nausea,[2]; 120 mg BID,10.0%
same,Adverse Events Leading to Discontinuation: Somnolence,[2]; 120 mg BID,1.7%
same,Adverse Events Leading to Discontinuation: Vomiting,[2]; 120 mg BID,5.0%
same,"Adverse Events Leading to Discontinuation, number of patients","[2]; 120 mg BID, N = 120",27
same,"Adverse Events Leading to Discontinuation, percent of patients","[2]; 120 mg BID, N = 120",22.5%
same,Serious Adverse Events (incidence),"[2]; 120 mg BID, N = 120, hydrochloride",6.7%
same,Serious Adverse Events (incidence),"[2]; 120 mg BID, N = 120, listed as NAL 120, hydrochloride",6.7%
same,"mood effects (adverse event reporting, Skindex-10 mood domain, HADS)","[2]; ER tablets, both doses",neutral in mood effects
same,safety profile,"[2]; ER tablets, both doses",no adverse safety trends other than those expected from a centrally-acting opioid
same,"Itch MOS [0 (best) to 60 (worst)], change from Baseline to the Evaluation Period, mean (SD)","[3]; 60 mg BID, N = 128",−13.9 (17.6)
same,"patients with sleep latency (time to fall asleep) >30 minutes, Itch MOS","[3]; 60 mg BID, 68.7% at baseline",35.9%
same,"Itch MOS [0 (best) to 60 (worst)], change from Baseline to the Evaluation Period, mean","[3]; 120 mg BID, N = 120, p < 0.1",−16.0
same,"patients with sleep latency (time to fall asleep) >30 minutes, Itch MOS","[3]; 120 mg BID, 67.5% at baseline",25.0%
same,"Itch MOS (Itch-Related Sleep Disruption) [0 (best) to 60 (worst)], change from Baseline to the Evaluation Period, mean (SD)","[3]; severe subgroup (Baseline NRS ≧ 7), 60 mg BID, N = 61",−15.0 (17.7)
same,"Itch MOS (Itch-Related Sleep Disruption) [0 (best) to 60 (worst)], change from Baseline to the Evaluation Period, mean","[3]; severe subgroup (Baseline NRS ≧ 7), 120 mg BID, N = 63, p < 0.01",−21.6
same,Sleep disruption due to itching,"[3]; severe subgroup (Baseline NRS ≧7.0), 120 mg BID, p=0.007",improved significantly relative to placebo
